{"source": "PubChem BioAssay AID1996"}
{"settings": "buffer; pH 7.4; 200.0 µM", "units": {"solubility kinetic": "µg/mL"}}
{"molecule": "O=C(CN1C(=O)/C(=C2/SC(=S)N(CCS(=O)(=O)O)C2=O)c2ccccc21)Nc1cccc(C(F)(F)F)c1", "solubility kinetic": 5.9}
{"molecule": "NS(=O)(=O)c1ccc(CCNC(=O)COC(=O)/C=C/c2cc(Br)ccc2F)cc1", "solubility kinetic": 30.2}
{"molecule": "CCc1nonc1NC(=O)COc1cc(C)c(Cl)c(C)c1", "solubility kinetic": 0.3}
{"molecule": "COCC(=O)N(Cc1cc2cc(C)ccc2[nH]c1=O)c1cccc(C)c1C", "solubility kinetic": 12.3}
{"molecule": "Cc1cc(=O)[nH]c(-c2ccc(Cl)cc2)n1", "solubility kinetic": "> 33.1"}
{"molecule": "Cc1nc(NC(=O)C2CC2)sc1C(=O)Nc1cccc(Cl)c1", "solubility kinetic": 0.8}
{"molecule": "CC(C)(C)c1ccc(NC(=S)NCc2cccnc2)cc1", "solubility kinetic": 40.8}
{"molecule": "CCC1(c2ccc(-c3ccccc3)cc2)C(=O)NC(=O)NC1=O", "solubility kinetic": 4.6}
{"molecule": "CN1C(=O)c2cccc3c(N(C)C)ccc(c23)C1=O", "solubility kinetic": 5.9}
{"molecule": "CN(C)c1ccc(NC(=O)Nc2cccc3ccccc23)cc1", "solubility kinetic": 2.6}
{"molecule": "O=C(COC(=O)Cc1c[nH]c2ccccc12)Nc1ccccc1C(F)(F)F", "solubility kinetic": "> 56.5"}
{"molecule": "COc1ccc(CCNC(=O)c2ccco2)cc1OC", "solubility kinetic": 40.8}
{"molecule": "CC(=O)Nc1ccc(C(=O)COC(=O)c2ccco2)c(F)c1", "solubility kinetic": "> 45.8"}
{"molecule": "Cc1cc(C(=O)Nc2ccc(Br)cc2)cs1", "solubility kinetic": 0.7}
{"molecule": "CCc1cc(C(=O)N2CCN(c3ccccn3)CC2)sc1C", "solubility kinetic": 43}
{"molecule": "Cc1ccc(S(=O)(=O)c2c[nH]c3ccc(C)cc3c2=O)cc1", "solubility kinetic": "< 0.7"}
{"molecule": "c1ccc2[nH]c(-c3cscn3)nc2c1", "solubility kinetic": "> 30.2"}
{"molecule": "Oc1ccc(C=NC2CCCCC2)cc1", "solubility kinetic": 16.6}
{"molecule": "O=C(COC(=O)CCC(=O)c1ccc(F)cc1)Nc1ccc(Cl)cn1", "solubility kinetic": 21.1}
{"molecule": "CC1CN(/C=C/C=O)C(C)CC1OC(=O)c1ccccc1", "note": "(stereo not drawn)", "solubility kinetic": "> 43.1"}
{"molecule": "CCc1nc2oc3ccccc3c(=O)c2c(=O)n1-c1ccc(C)cc1", "solubility kinetic": 44.2}
{"molecule": "COc1ccccc1-c1nc(C#N)c(N2CC(C)CC(C)C2)o1", "note": "(stereo not drawn)", "solubility kinetic": 1.5}
{"molecule": "Cc1cc(Cl)ccc1-n1c(-c2cccnc2)n[nH]c1=S", "solubility kinetic": "> 45.4"}
{"molecule": "Cn1c(N)c(C(=O)Nc2ccccc2F)sc1=S", "solubility kinetic": 4.4}
{"molecule": "Cc1nc(SCC(=O)N2CCNC2=O)c2ccccc2n1", "solubility kinetic": "> 45.4"}
{"molecule": "COc1cc2ccccc2cc1C(=O)Nc1ccccc1Cl", "solubility kinetic": "< 0.7"}
{"molecule": "CC(=O)c1cccc(NC(=O)COC(=O)Cn2cnc3ccccc32)c1", "solubility kinetic": "> 52.7"}
{"molecule": "NS(=O)(=O)c1cc(C(=O)NCCc2ccccn2)ccc1Cl", "solubility kinetic": 49.1}
{"molecule": "O=C1CCN(C(=S)NCc2ccccc2)CC1", "solubility kinetic": "> 37.3"}
{"molecule": "COc1ccc(OC)c2c1sc(=NC(=O)C1COc3ccccc3O1)n2C", "note": "(stereo not drawn)", "solubility kinetic": "< 0.4"}
{"molecule": "Cc1cccc(NC(=S)NCC(C)CSc2ccc(Cl)cc2)c1", "note": "(stereo not drawn)", "solubility kinetic": "< 0.4"}
{"molecule": "Cc1cc(C)c(NC(=O)Cn2c([N+](=O)[O-])cnc2C)c(C)c1", "solubility kinetic": 4.1}
{"molecule": "S=C(Nc1ccc(Br)cc1)N1CCN(c2ccccn2)CC1", "solubility kinetic": 2.1}
{"molecule": "COc1ccccc1NC(=O)Nc1ccc2c(c1)nc(C)n2C", "solubility kinetic": 5.7}
{"molecule": "NS(=O)(=O)c1ccc(CCNC(=O)c2ccc(Cl)c(S(=O)(=O)NCc3ccco3)c2)cc1", "solubility kinetic": "> 74.7"}
{"molecule": "Cc1ccc(S(=O)(=O)n2cc(C=O)c3ccccc32)cc1", "solubility kinetic": "< 0.6"}
{"molecule": "O=C1C2CCCN2C(c2ccco2)N1c1ccc(F)cc1", "note": "(stereo not drawn)", "solubility kinetic": "> 42.9"}
{"molecule": "O=C1CCC(C(=O)OCC(=O)Nc2cc(Cl)ccc2F)=NN1", "solubility kinetic": "> 49.2"}
{"molecule": "Cl.O=C(NC1CCN(Cc2ccccc2)CC1)c1cccc(S(=O)(=O)Nc2ccc(SC(F)F)cc2)c1", "solubility kinetic": 31.7}
{"molecule": "COc1ccc(OCC(=O)Nc2nc3cc4c(cc3s2)OCCO4)cc1", "solubility kinetic": 4.6}
{"molecule": "CCCCOC(=O)c1ccc(NC(=O)C(=O)NCc2ccccn2)cc1", "solubility kinetic": 0.8}
{"molecule": "COc1ccc(C(=O)NCC(=O)OCC(=O)NCc2cccs2)cc1", "solubility kinetic": "> 54.4"}
{"molecule": "O=C(O)c1cc(-c2cccs2)nc2ccc(Br)cc12", "solubility kinetic": "> 50.1"}
{"molecule": "COc1ccccc1CC(=O)N(Cc1ccccc1)c1cccc(C)c1", "solubility kinetic": 8.9}
{"molecule": "COc1ccccc1NS(=O)(=O)c1cn(C)cn1", "solubility kinetic": "> 40.1"}
{"molecule": "Cc1cccc(C)c1NC(=O)CN(C)C(=O)CCC(=O)N1CCOCC1", "solubility kinetic": "> 54.2"}
{"molecule": "COc1ccc(/C=C/C2=CCN(C)CC2)cc1.Cl", "solubility kinetic": "> 39.9"}
{"molecule": "Cc1cccc(C)c1NC(=O)C1CCN(C(=O)c2cccs2)CC1", "solubility kinetic": 39.1}
{"molecule": "N#CC1(NC(=O)COc2ccc(C(N)=O)cc2)CCCC1", "solubility kinetic": "> 43.1"}
{"molecule": "O=C(CCCCCCC(=O)NCc1ccccc1)NCc1ccccc1", "solubility kinetic": 1.4}
{"molecule": "Cc1cccc(NC(=O)Nc2ccc3c(c2)CCC3)c1", "solubility kinetic": "< 0.3"}
{"molecule": "CCCc1cc(C(=O)Nc2ccc(CC)cc2)no1", "solubility kinetic": 1.4}
{"molecule": "COc1ccccc1/C=C1\\N=C(C(C)(C)C)OC1=O", "solubility kinetic": 3}
{"molecule": "O=C(NCCO)c1cc([N+](=O)[O-])cc2c1C=Cc1ccccc1O2", "solubility kinetic": 35.3}
{"molecule": "COc1ncnc(OC)c1S(=O)(=O)NCc1ccccc1", "solubility kinetic": "> 46.4"}
{"molecule": "CCCCn1c(=O)c(C(=O)Nc2ccccc2F)c(O)c2ccccc21", "solubility kinetic": "< 0.4"}
{"molecule": "O=[N+]([O-])c1ccc(S(=O)(=O)NCCc2ccncc2)cc1", "solubility kinetic": 12.8}
{"molecule": "Cc1csc(NC(=O)CSC2=NCCS2)n1", "solubility kinetic": 40.5}
{"molecule": "CCCOc1cccc(C(=O)Nc2ccc(CN3CCOCC3)cc2)c1", "solubility kinetic": 47.2}
{"molecule": "CC(=O)Nc1ccc(NC(=O)Nc2ccccc2)cc1", "solubility kinetic": 6.3}
{"molecule": "Cc1cc(Cl)ccc1OCCCC(=O)OCC(N)=O", "solubility kinetic": 42.3}
{"molecule": "CCCS(=O)(=O)N1CCCC(C(=O)Oc2ccccc2Cl)C1", "note": "(stereo not drawn)", "solubility kinetic": 45.6}
{"molecule": "Cc1cc(=O)[nH]c2ccc(S(=O)(=O)Nc3ccc(O)cc3)cc12", "solubility kinetic": "> 49.6"}
{"molecule": "O=C(Nc1ccccc1)NC1CCN(Cc2c(F)cccc2Cl)CC1", "solubility kinetic": 6.8}
{"molecule": "COc1cc(-c2cc(C(=O)OCC(=O)NC3CC3)c3ccccc3n2)cc(OC)c1OC", "solubility kinetic": 3.7}
{"molecule": "COc1ccc(CC(=O)Nc2ccccc2N2CCCCC2)cc1OC", "solubility kinetic": 30.7}
{"molecule": "Cc1sc(NC(=O)C2=COCCO2)c(C(N)=O)c1C", "solubility kinetic": "> 42.3"}
{"molecule": "O=S(=O)(NC1CCCCCC1)c1cccc(Cl)c1", "solubility kinetic": 40.6}
{"molecule": "O=C1CN(C(=O)COC(=O)CCC(=O)c2ccc(Cl)cc2)c2ccccc2N1", "solubility kinetic": 57.2}
{"molecule": "Cc1nc2c(ncn2-c2ccccc2)c(=O)n1NC(=O)CN1CCCC1", "solubility kinetic": "> 52.9"}
{"molecule": "Cn1c(=O)[nH]c(NCCc2ccc(O)cc2)c([N+](=O)[O-])c1=O", "solubility kinetic": "> 45.9"}
{"molecule": "Cc1c(Cl)cnc(NC(=O)COC(=O)CNC(=O)c2ccccc2)c1Cl", "solubility kinetic": 52.3}
{"molecule": "COc1ccc(OC)c(N/C(=N/c2nc(C)cc(C)n2)NC(C)=O)c1", "solubility kinetic": 0.6}
{"molecule": "COc1ccc(-c2c(C(=O)O)c(C(=O)O)c3n2CCC3)cc1", "solubility kinetic": "> 45.2"}
{"molecule": "Cc1cc(C(=O)OCC(=O)N(C)c2ccccc2)ccc1[N+](=O)[O-]", "solubility kinetic": 42.1}
{"molecule": "CC(OC(=O)c1ccco1)C(=O)Nc1ccc(Cl)cn1", "note": "(stereo not drawn)", "solubility kinetic": "> 44.2"}
{"molecule": "Cc1ccc(C(=O)NCC(=O)Nc2ccc(Cl)cc2)s1", "solubility kinetic": 4.6}
{"molecule": "CN(C)CCNc1cnn(-c2ccccc2)c(=O)c1Cl", "solubility kinetic": "> 43.9"}
{"molecule": "COc1cccc(NC(=O)C(Cc2ccccc2)n2cccc2)c1", "note": "(stereo not drawn)", "solubility kinetic": 27.2}
{"molecule": "CCOC(=O)Nc1ccc2c(COC(=O)C(NS(=O)(=O)c3ccc(Cl)cc3)C(C)O)cc(=O)oc2c1", "note": "(stereo not drawn)", "solubility kinetic": 20.5}
{"molecule": "COc1ccc(OC)c(CNC(=O)CCc2cn(C)c3ccccc23)c1", "solubility kinetic": 12.7}
{"molecule": "Cc1ccc(C(=O)COC(=O)c2cn3ccccc3n2)cc1", "solubility kinetic": 4.1}
{"molecule": "CCC(=O)NCCc1nc2cc(NC(=O)c3cccs3)ccc2n1C", "solubility kinetic": "> 53.5"}
